Results published in patent US8198217B2, “Composition for weeding” (Kumiai Chemical Industry Co., Ltd., priority 2007, dated 2012).

Columns and labels:
early watergrass (ECHOR) = experiment: Weed control effect test on paddy fields; format: in vivo, Echinochloa oryzicola; conditions: applied onto water surface, 25th day from treatment
Excerpt: (§1) A plastic pot of 1/20000 are area was each filled with a paddy field soil which was manured and shuffled followed by sowing of the respective seeds of early watergrass (ECHOR), heartshape false pickerelweed (MOOVA), rock's bulrush (SCIJO) and marsh dayflower (ANEKE) and burying of tuberous roots of tidalmarsh flatsedge (CYPSE) followed by pooling of water in a water depth of 1 cm. And, paddy rice plants (Or) at the two-leaves stage were transplanted to the same pot and grown in a greenhouse. Thereafter, on the day when the early watergrass had reached its 2.5 leaves stage, pooling of water was undertaken in order to make the water depth to 3 cm and agents each prepared by dilution of a specified amount of the wettable powder prepared in the same manner as in Example 1 and 2 with water was applied onto the water surface, respectively. Then, growing was continued keeping the pooling water depth of 3 cm to record the weed control effect and the extent of phytotoxicity on the 25th day from the treatment as indexes according to the criteria given in Table 1. The dosages are given in terms of the amount of the active ingredients per 10 ares area.

[1] = system: heartshape false pickerelweed (MOOVA); experiment: Weed control effect test on paddy fields; format: in vivo, Monochoria vaginalis; conditions: applied onto water surface, 25th day from treatment
Excerpt: as §1

[2] = system: tidalmarsh flatsedge (CYPSE); experiment: Weed control effect test on paddy fields; format: in vivo, Cyperus serotinus; conditions: applied onto water surface, 25th day from treatment
Excerpt: as §1

yellow nutsedge (CYPES) = experiment: Weed control effect test by stems-and-leaves treatment; format: in vivo; conditions: 30th day from treatment
Procedure: (§2) A plastic pot of 1/2000 are area was each filled with a dry-field soil where the respective seeds of corn (ZEAMX), pitted morningglory (IPOLA), velvet leaf (ABUTH) and lamb's-quarters (CHEAL) were sowed and tuberous roots of yellow nutsedge (CYPES) were buried followed by pooling of water from the bottom part of the pot. These seeds and tuberous roots were grown in a greenhouse. On the day when the pitted morningglory had reached its 4 leaves stage, a stems-and-leaves treatment was undertaken on the whole plant bodies with agents each prepared by dilution of a specified amount of the water-dispersible granules prepared in the same manner as in Example 3, 4 and 5 with water, respectively. Thereafter, growing was continued in the glasshouse to record the weed control effect and the extent of phytotoxicity on the 30th day from the treatment as indexes according to the criteria given in Table 1. The dosages are given in terms of the amount of the active ingredients per hectare (ha).

velvet leaf (ABUTH) = experiment: as above; format: in vivo; conditions: 30th day from treatment
Procedure: as §2

[3] = system: pitted morningglory (IPOLA); experiment: as above; format: in vivo; conditions: 30th day from treatment
Procedure: as §2

lamb's-quarters (CHEAL) = experiment: as above; format: in vivo; conditions: 30th day from treatment
Procedure: as §2

rock's bulrush (SCIJO) = experiment: Weed control effect test on paddy fields; format: in vivo, Scirpus juncoides; conditions: applied onto water surface, 25th day from treatment
Excerpt: as §1

paddy rice plants (Or) = experiment: Weed control effect test on paddy fields: phytotoxicity to paddy rice; format: in vivo; conditions: applied onto water surface, 25th day from treatment
Excerpt: as §1

corn (ZEAMX) = experiment: Weed control effect test by stems-and-leaves treatment: phytotoxicity to corn; format: in vivo; conditions: 30th day from treatment
Procedure: as §2, with “On the day when the pitted morningglory had reached its 4 leaves stage, a stems-and-leaves treatment was undertaken on the whole plant bodies with agents each prepared by dilution of a specified amount of the water-dispersible granules prepared in the same manner as in Example 3, 4 and 5 with water, respectively.” left out

marsh dayflower (ANEKE) = experiment: Weed control effect test on paddy fields; format: in vivo; conditions: applied onto water surface, 25th day from treatment
Excerpt: as §1

COCc1cccc(C(O)c2nc(OC)cc(OC)n2)c1NS(=O)(=O)C(F)F (stereo not shown) [Compound A-1, 2-[(4,6-dimethoxypyrimidin-2-yl)hydroxymethyl]-6-methoxymethyl-N-difluoromethanesulfonylanilide]
weed control effect index, ECHOR (early watergrass (ECHOR); 3 g a.i./10a): 7 (not less than 65% but less than 75% growth inhibition)
weed control effect index, MOOVA ([1]; 3 g a.i./10a): 7 (not less than 65% but less than 75% growth inhibition)
weed control effect index, CYPSE ([2]; 3 g a.i./10a): 8 (not less than 75% but less than 85% growth inhibition)
weed control effect index, CYPES (yellow nutsedge (CYPES); 10 g a.i./ha): 7 (not less than 65% but less than 75% growth inhibition)
weed control effect index, ABUTH (velvet leaf (ABUTH); 10 g a.i./ha): 5 (not less than 45% but less than 55% growth inhibition)
weed control effect index, IPOLA ([3]; 10 g a.i./ha): 6 (not less than 55% but less than 65% growth inhibition)
weed control effect index, CHEAL (lamb's-quarters (CHEAL); 10 g a.i./ha): 1 (not less than 5% but less than 15% growth inhibition)
weed control effect index, SCIJO (rock's bulrush (SCIJO); 3 g a.i./10a): 8 (not less than 75% but less than 85% growth inhibition)
extent of phytotoxicity index, OR (paddy rice plants (Or); 3 g a.i./10a): 0 (less than 5% growth inhibition)
extent of phytotoxicity index, ZEAMX (corn (ZEAMX); 10 g a.i./ha): 0 (less than 5% growth inhibition)
weed control effect index, ANEKE (marsh dayflower (ANEKE); 3 g a.i./10a): 2 (not less than 15% but less than 25% growth inhibition)

CCCc1ccc2nc(Cl)c(S(=O)(=O)NC(=O)Nc3nc(OC)cc(OC)n3)n2n1 [TH-547, 1-(2-chloro-6-propylimidazo[1,2-b]pyridazin-3-ylsulfonyl)-3-(4,6-dimethoxypyrimidin-2-yl)urea]
weed control effect index, ECHOR (early watergrass (ECHOR); 7 g a.i./10a): 7 (not less than 65% but less than 75% growth inhibition)
weed control effect index, MOOVA ([1]; 7 g a.i./10a): 7 (not less than 65% but less than 75% growth inhibition)
weed control effect index, CYPSE ([2]; 7 g a.i./10a): 6 (not less than 55% but less than 65% growth inhibition)
weed control effect index, SCIJO (rock's bulrush (SCIJO); 7 g a.i./10a): 6 (not less than 55% but less than 65% growth inhibition)
extent of phytotoxicity index, OR (paddy rice plants (Or); 7 g a.i./10a): 0 (less than 5% growth inhibition)
weed control effect index, ANEKE (marsh dayflower (ANEKE); 7 g a.i./10a): 4 (not less than 35% but less than 45% growth inhibition)

CCNc1nc(Cl)nc(NC(C)C)n1 [atrazine]
weed control effect index, CYPES (yellow nutsedge (CYPES); 1000 g a.i./ha): 3 (not less than 25% but less than 35% growth inhibition)
weed control effect index, ABUTH (velvet leaf (ABUTH); 1000 g a.i./ha): 3 (not less than 25% but less than 35% growth inhibition)
weed control effect index, IPOLA ([3]; 1000 g a.i./ha): 3 (not less than 25% but less than 35% growth inhibition)
weed control effect index, CHEAL (lamb's-quarters (CHEAL); 1000 g a.i./ha): 8 (not less than 75% but less than 85% growth inhibition)
extent of phytotoxicity index, ZEAMX (corn (ZEAMX); 1000 g a.i./ha): 0 (less than 5% growth inhibition)

COC(=O)CSc1cc(/N=c2\sc(=O)n3n2CCCC3)c(F)cc1Cl [fluthiacet-methyl]
weed control effect index, CYPES (yellow nutsedge (CYPES); 5 g a.i./ha): 2 (not less than 15% but less than 25% growth inhibition)
weed control effect index, ABUTH (velvet leaf (ABUTH); 5 g a.i./ha): 9 (not less than 85% but less than 95% growth inhibition)
weed control effect index, IPOLA ([3]; 5 g a.i./ha): 3 (not less than 25% but less than 35% growth inhibition)
weed control effect index, CHEAL (lamb's-quarters (CHEAL); 5 g a.i./ha): 8 (not less than 75% but less than 85% growth inhibition)
extent of phytotoxicity index, ZEAMX (corn (ZEAMX); 5 g a.i./ha): 0 (less than 5% growth inhibition)

CCC1(CC2(c3cccc(Cl)c3)CO2)C(=O)c2ccccc2C1=O (stereo not shown) [indanofan]
weed control effect index, ECHOR (early watergrass (ECHOR); 15 g a.i./10a): 6 (not less than 55% but less than 65% growth inhibition)
weed control effect index, MOOVA ([1]; 15 g a.i./10a): 5 (not less than 45% but less than 55% growth inhibition)
weed control effect index, CYPSE ([2]; 15 g a.i./10a): 1 (not less than 5% but less than 15% growth inhibition)
weed control effect index, SCIJO (rock's bulrush (SCIJO); 15 g a.i./10a): 3 (not less than 25% but less than 35% growth inhibition)
weed control effect index, ANEKE (marsh dayflower (ANEKE); 15 g a.i./10a): 5 (not less than 45% but less than 55% growth inhibition)

COc1cc(OC)nc(NC(=O)NS(=O)(=O)c2ncccc2C(=O)N(C)C)n1 [nicosulfuron]
weed control effect index, CYPES (yellow nutsedge (CYPES); 35 g a.i./ha): 4 (not less than 35% but less than 45% growth inhibition)
weed control effect index, ABUTH (velvet leaf (ABUTH); 35 g a.i./ha): 2 (not less than 15% but less than 25% growth inhibition)
weed control effect index, IPOLA ([3]; 35 g a.i./ha): 3 (not less than 25% but less than 35% growth inhibition)
weed control effect index, CHEAL (lamb's-quarters (CHEAL); 35 g a.i./ha): 8 (not less than 75% but less than 85% growth inhibition)
extent of phytotoxicity index, ZEAMX (corn (ZEAMX); 35 g a.i./ha): 0 (less than 5% growth inhibition)
